Tests used:
parental BAF3 cells = test: Parental BAF3 cell proliferation assay (CellTiter-Glo); format: cell-based; details: Mus musculus, 48 hours, 2% FBS
Description: To evaluate the cellular potency and selectivity within the TAM receptor family, mouse BAF3 cell lines with stable expression of AXL, MER, or TYRO3 were generated.
The cytoplasmic domain of AXL, MER, or TYRO3 fused with dimerization sequence and HA tag was cloned into a pMSCV (murine stem cell virus) vector with a puromycin-resistance marker to generate three constructs individually by electroporation into BAF3 cells. Single clones that were IL-3-independent and puromycin-resistant were selected and characterized. To evaluate effects on BAF3 cell proliferation, 1000 cells/well of BAF3, BAF3-AXL, BAF3 MER, or BAF3-TYRO3 cells were treated in the presence or absence of Compound 1 at various concentrations (10 concentration points with a three-fold dilution factor from the highest concentration of 10 μM) diluted in RPMI-1640 with 2% FBS for 48 hours in a 384-well plate. Cell viability was measured by ATP assay (CellTiter-Glo Assay, Promega, Madison, Wis.) according to the manufacturer's procedure. The data were converted to percent inhibition relative to DMSO control, and IC50 curves were fitted using GraphPad Prism software.

CTG-2041 tumors = test: Sarcoma PDX model CTG-2041 (angiosarcoma); format: in vivo, athymic nude mice
Description: Macrophages were allowed to thaw on ice before being lysed with 250 μL/well of 1× Lysis Buffer (Cell Signaling Technology; #9803) and Halt protease and phosphatase inhibitors (ThermoFisher Scientific) for 1 hour at 4° C. The lysed cells were scraped and transferred to an Eppendorf vial on ice. The lysates were centrifuged at 12,700 rpm for 15 minutes at 4° C. PDX tumors were weighed and homogenized with lysis buffer supplemented with protease and phosphatase inhibitor cocktails (Roche, Basel, Switzerland; #11836170001). Tumors were lysed on ice for 30 minutes, followed by centrifugation at 13,000 rpm for 10 minutes. Protein lysates were quantified using BCA Protein Assay Kit (Pierce, ThermoFisher Scientific; #23225). Lysates were transferred to a new tube together with 6× Laemmli SDS sample buffer (Alfa Aesar, Haverhill, Mass.) and the samples were heated for 6 minutes at 95° C. Approximately 50 μg of protein sample was loaded per well using Novex™ 8-16% Tris-Glycine Mini Gels or 4-12% Tris-Glycine Novex WedgeGels (Invitrogen, Carlsbad, Calif.). The proteins were transferred to a nitrocellulose membrane using an iBlot (ThermoFisher Scientific) dry blotting system. The membranes were blocked with 0.5% nonfat dry milk in wash buffer (100 mM NaCl, 10 mM Tris-HCl, pH 8.0, 0.1% Tween 20) for 1 hour at room temperature. The primary antibody used for pMER was from PhosphoSolutions (Aurora, Colo.; #p186-749). The remaining antibodies were obtained from Cell Signaling Technology: MER (#4319), pAXL (#5724), AXL, (#4566), GAS6 (#67202), pAKT (#4060), AKT (#9272), and β-Actin (#4970). Primary antibodies were added at 1:500 and 1:1000, respectively, in 0.5% milk/wash buffer and rocked overnight at 4° C. The membranes were washed three times in wash buffer before incubation with the secondary antibody (anti-rabbit IgG1-HRP; Cell Signaling Technology) at 1:2500 in 0.5% milk/wash buffer for 2 hours at room temperature. The membranes were washed again before the bands were detected with SuperSignal West Dura Extended Duration Chemiluminescent substrate (ThermoFisher Scientific) and were visualized using the Fluorochem M Digital Imager (Protein Simple, San Jose, Calif.).
MBT-2 cells were obtained from the Japanese Collection of Research Bioresources Cell Bank and were maintained in DMEM supplemented with 10% FBS. MC38 cells were obtained from the NCI. 4T1 cells were obtained from ATCC and maintained in RPMI media supplemented with 10% FBS. For MBT-2 experiments, 5×10^5 MBT-2 cells were inoculated subcutaneously into the right hind flank of 6- to 8-week-old C3H mice or athymic nude mice (Charles River Laboratories, Wilmington, Mass.). For MC38 studies, 12-week old female C57BL/6 mice were inoculated with brei of MC38 tumors (in-vivo passage 6) into the right hind flank. For 4T1 studies, 7.5×10^5 4 T1 cells were inoculated subcutaneously into the right hind flank of 6- to 8-week-old female BALB/c mice or athymic nude mice (Charles River Laboratories). Mice were randomized by tumor volume with n=10-12 per group. Compound 1 was dosed orally twice a day (BID) continuously from the start to the end of study. In the MC38 study, anti-programmed death ligand 1 (PD-L1) (BE0101, Bio X Cell, West Lebanon, NH) was dosed intraperitoneally at 15 mg/kg twice a week. […] Mice were monitored for tumor growth and overt tolerability over the course of the experiment. […]

In the case of CC(C)C(=O)N1CCC(c2cc(-c3ccc(NC(=O)c4cn(C(C)C)c(=O)n(-c5ccccn5)c4=O)cc3)c3c(N)ncnn23)CC1 [Compound 1, N-(4-(4-Amino-7-(1-isobutyrylpiperidin-4-yl)pyrrolo[1,2-f][1,2,4]triazin-5-yl)phenyl)-1-isopropyl-2,4-dioxo-3-(pyridin-2-yl)-1,2,3,4-tetrahydropyrimidine-5-carboxamide], the IC50 (parental BAF3 cells) is reported as > 4 µM, the TGI (CTG-2041 tumors; CTG-2041, equivalent activity at 10, 30 and 100 mg/kg BID oral, FIG. 9A) is reported as 95% and the “GAS6 levels in tumors (Western blot)” value (CTG-2041 tumors; CTG-2041 tumors, FIG. 9D) is reported as “increased”. The “pAKT in tumors (Western blot)” value (CTG-2041 tumors; CTG-2041 tumors, FIG. 9D) was “inhibited”, the “pAXL and pMER in tumors (Western blot)” value (CTG-2041 tumors; CTG-2041 tumors, FIG. 9D) was “inhibited” and the “total MER levels in tumors (Western blot)” value (CTG-2041 tumors; CTG-2041 tumors, FIG. 9D) was “increased”.
